Measurements taken from patent publication US8003345B2, “Antioxidant pharmaceutical compound, method for producing polypeptide and method of cure” (Institute of Cell Biophysics Russian Academy of Sciences, priority 2002, dated 2011).

Columns and labels:
[1] = test system: glutamine synthetase; assay: Comparative characteristics of peroxiredoxin activators (glutamine synthetase protection against metal-catalyzed oxidative system); assay type: biochemical; conditions: 50 μg peroxiredoxin VI, FIG. 11
Protocol: The antioxidant activity was determined from the degree of glutamine synthetase protection against metal-catalyzed oxidative system. The antioxidant effectiveness of thiols was determined in molar concentration, at which 50% protection of glutamine synthetase took place.
For determining the effectiveness of peroxiredoxin activation with dithiothreitol or with dihydrolipoic acid (natural activator), use is made of the ability of peroxiredoxin to protect glutamine synthetase from inactivation caused by the metal-catalyzed oxidative system.
The degree of the peroxiredoxin activity was determined from the protein concentration value, at which 50% preservation of the glutamine synthetase activity was observed.

[2] = test system: tracheal epithelium of rat after application of lipopolysaccharide; assay: Inflammation of rat tracheal epithelium caused by lipopolysaccharide (LPS); assay type: in vivo
Protocol: The therapeutic properties of peroxiredoxin Prx VI in treating the upper respiratory tract of rat immediately after the application of LPS were checked on a group of 4 Wistar line rats weighing 150-200 grams. The application of LPS was carried out in the following manner. The rats were anesthetized with hexenal, and 100 μl of a lipopolysaccharide solution were introduced through a catheter (the lipopolysaccharide concentration was from 10^−9 to 10^−11 mg/ml, the total number of the used animals was 20). After the application of the lipopolysaccharide, the rats were maintained for a definite period of time (1 hour, 3 hours, 6 hours, 7 hours, 9 hours), then narcotized with hexenal (300 mg/kg weight), and a sample of the tracheal epithelial tissue was isolated. For histochemical investigations the isolated sample was placed into a fixing solution containing 2% of formaldehyde and 0.5% of glutaraldehyde. The tissue was dehydrated by sequential routing through ethyl alcohol with increasing concentration (40-100%). The tissue was embedded into LR white resin. The resin was polymerized at room temperature. 0.5 em-thick sections were made on an LKB ultratome (Sweden), using glass knives. The sections were stained with a hematoxylin-eosine and analyzed under a light microscope.
For biochemical investigations we scraped the epithelium with a thin spatula, washed off the scrape with physiological solution and centrifugated at 10000 g for 15 min. The concentration of hydrogen peroxide was by the luminescence method. […] After LPS, application of a solution of a composition based on peroxiredoxin Prx VI into the trachea was carried out. Preliminarily the rats were narcotized by intraperitoneal administration of hexenal (70 mg/kg), the animals were fixed on an operating table, and under visual control with the aid of a binocular lens, through a catheter of 1 mm in diameter, peroxiredoxin solution (20 to 100 μl) was introduced into the trachea. The peroxiredoxin concentration was from 0.5 to 5.0 mg/ml. A 0.9% solution of NaCl was used as the solvent. The application of the solution of the composition was carried out once, immediately after the application of LPS. The application of pure solvent, solutions of serum albumin (10 mg/ml) and of glutathione (10 mM) were used as control.
Histological investigation of the trachea was carried out 24 hrs after the LPS application.

[3] = test system: tracheal epithelium of rat after application of lipopolysaccharide; assay: as above; assay type: in vivo; remark: listed apart in the source
[4] = test system: skin cuts of rats; assay: Treating skin wounds (cuts) in rats; assay type: in vivo, rat; conditions: in 5 days; 0.5 mg/ml in 0.15 M NaCl, bandages changed once a day; against control; FIG. 10
Protocol: Rats were preliminarily narcotized by intraperitoneal introduction of hexenal (70 mg/kg). The animals were fixed on an operating table, and then 2-3 mm deep and 1 cm long cuts were made in the skin of both paws with the help of a razor blade. Control cuts were irrigated with physiological solution and a bactericidal plaster was applied; in the case of using peroxiredoxin, the wound was irrigated with a solution of recombinant Prx Vlhum or of its fragment ΔPrx Vlhum in 0.15 M NaCl in 0.5 mg/ml concentration, and a gauze bandage soaked with the same solutions was applied. The bandages were changed once a day.

[5] = test system: glutamine synthetase of E.coli; conditions: DTT/Fe3+/O2 oxidative system, 3 mM activator, 10 min at 37° C.; FIG. 3
Protocol: Comparison of the protector properties of recombinant full-size Prx Vlhum with the protector properties of natural rat Prx VIrat and with the protector properties of N-terminal ΔPrx V1hum in terms of protecting glutamine synthetase of E.coli from inactivation in a model oxidative system in vitro.
For determining the activity of different types of peroxiredoxins, their ability to protect glutamine synthetase from the DTT/Fe^+3/O2 oxidative system is measured. Glutamine synthetase is isolated from cells of the E.coli DH5α strain (Streicher S. L., Tyler B., 1980) and inactivated in the presence of a Fe^3+/O2 oxidative system and a peroxiredoxin activator—in the model oxidative system generating free radicals (Kim K. et al., 1988). […] The residual activity of glutamine synthetase is assessed by adding to the sample 200 μl of a reaction mixture which comprises: ADP, 0.4 mM; glutamine, 150 mM; K—AsO4, 10 mM; NH2OH, 20 mM; MnCl2, 0.4 mM; HEPES, 100 mM, pH 7.4. […] The protector properties of peroxiredoxin for protecting glutamine synthetase of E.coli from inactivation are determined as the ratio of the remaining activity of the enzyme after the inactivation in the presence of different concentrations of peroxiredoxin to the activity of non-inactivated glutamine synthetase.

[6] = Cytotoxicity: number of live line L929 cells; assay type: cell-based, human; conditions: 0.1-10 μg/ml concentration; Trypan stain
Protocol: (§1) The cytotoxicity is determined from the influence of recombinant Prx V1hum or of natural rat Prx V1rat on the level of proliferation of line L929 human lymphoblastoma cells and of T-lymphocytes from the spleen of line NRRI rats stimulated with concavalin A.
(§2) Cells of two lines with the concentration of 10^4 cells/ml medium were cultivated in RPMI 1640 containing 5% of bovine fetal serum. The stimulation of T-lymphocytes was carried out with the 0.1 μg/ml concentration of concavalin. In the case of T-lymphocytes the proliferation level was determined from the inclusion of ^3H-thymidine. The number of live line L929 cells was determined in a 96-cell plate with the aid of a Trypan stain, followed by scanning on a Multiscan multichannel photometer (LKB, Sweden).

[7] = test system: T-lymphocytes from the spleen of line NRRI rats stimulated with concavalin A; assay: Proliferation of concanavalin A-stimulated T-lymphocytes (3H-thymidine inclusion); assay type: cell-based; conditions: 0.1-1.0 mg/ml concentration, against cells stimulated only with concavalin A
Protocol: as §1, §2

Which “antioxidant effectiveness of thiols (degree of glutamine synthetase protection)” value [1] does the source give for `O=C(O)CCCC[C@@H](S)CCS` (racemic) [dihydrolipoic acid] here?
Its value is “almost equal to dithiothreitol and substantially surpasses the effectiveness of lipoic acid”.

For `N[C@@H](CCC(=O)N[C@@H](CS)C(=O)NCC(=O)O)C(=O)O` [Glutathione, glutathione, reference compound], which “Integrity of tracheal epithelium (according to histological data)” value (shortened to “Integrity … (according to histological data)”) ([2]; Time after the action of LPS: 1 hour) is on record?
The value was 30%.

And the “Integrity … (according to histological data)” value ([2]; Time after the action of LPS: 3 hours)?
Its value is 20%.

What about the “Integrity … (according to histological data)” value ([2]; Time after the action of LPS: 6 hours) of the same molecule?
Its value is 10%.

And the “Integrity … (according to histological data)” value ([3]; Treatment 24 hours later for 5 days and the integrity of epithelium 2 weeks later)?
Its value is 20%.

And the “effect on tracheal epithelium after LPS (in words)” value ([3]; other antioxidants, see Table 2)?
Its value is “no significant effect”.

B1: ΔPrx VIhum: N-terminal fragment of human peroxiredoxin Prx VI (SEQ ID NO: 2), length 177 a.b., molecular mass 19691.61 Da (protein, listed as Homo sapiens)
chain: MPGGLLLGDVAPNFEANTTVGRIRFHDFLGDSWGILFSHPRDFTPVCTTELGRAAKLAPEFAKRNVKLIALSIDSVEDHLAWSKDINAYNCEEPTEKLPFPIIDDRNRELAILLGMLDPAEKDEKGMPVTARVVFVFGPDKKLKLSILYPATTGRNFDEILRVVISLQLTAEKRVATPVDWKDGDSVMVLPTIPEEEAKKLFPKGVFTKELPSGKKYLRYTPQP
Which “healing of the wound” value [4] does the source give for B1 here?
Its value is “almost complete healing of the wound”.

What about the “protector properties: antioxidant characteristics in protecting glutamine synthetase from inactivation” value [5] of the same molecule?
The value was “close to the recombinant full-size Prx Vlhum”.

B2: Prx VIrat: natural peroxiredoxin isolated from the olfactory epithelium of a Wistar line rat, 223 amino acids (protein, UniProt O35244 2-224, looked up)
Peroxiredoxin-6: PGGLLLGDEAPNFEANTTIGHIRFHDFLGDSWGILFSHPRDFTPVCTTELGRAAKLAPEFAKRNVKLIALSIDSVEDHFAWSKDINAYNGAAPTEKLPFPIIDDKDRDLAILLGMLDPAEKDEKGMPVTARVVFIFGPDKKLKLSILYPATTGRNFDEILRVVDSLQLTASNPVATPVDWKKGESVMVLPTLPEEEAKQLFPKGVFTKELPSGKKYLRYTPQP
With B2 as the molecule, how does the “effect on the number of live line L929 cells” value [6] read?
The value was “did not produce any effect”.

And the “cell proliferation level of T-lymphocytes stimulated with concavalin A” value [7]?
Its value is “increased approximately twofold”.
